Usually EC50 stands for the midpoint of the concentration-response curve. Higher therefore signals weaker potency.

The target of the test is T1, human GPBAR1 receptor (Homo sapiens, UniProt Q8TDU6).
T1 construct: expressed in transfected cells
T1 sequence (Q8TDU6 1-330): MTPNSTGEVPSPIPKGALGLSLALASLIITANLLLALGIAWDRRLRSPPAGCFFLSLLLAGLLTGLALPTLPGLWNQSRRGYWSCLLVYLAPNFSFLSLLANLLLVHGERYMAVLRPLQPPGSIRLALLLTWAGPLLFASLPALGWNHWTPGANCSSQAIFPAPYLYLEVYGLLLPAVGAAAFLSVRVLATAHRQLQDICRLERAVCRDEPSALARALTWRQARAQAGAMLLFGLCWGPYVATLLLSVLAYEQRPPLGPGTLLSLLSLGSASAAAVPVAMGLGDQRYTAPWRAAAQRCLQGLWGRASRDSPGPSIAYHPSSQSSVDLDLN
In words: functional cAMP assay in CHO-dhfr(minus) cells expressing human GPBAR1 receptors. In kind it is cell-based. The note with it: human EC50, functional cAMP assay, 30 min at 30° C. The method in brief: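 Agonist cAMP read-out: stable GPBAR1 CHO-dhfr− clone, 30 min compound exposure at 30° C following 30 min IBMX (1 mM) preincubation in Krebs Ringer bicarbonate. Time-resolved energy-transfer detection gives EC50; parental CHO cells serve as counter-screen.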
In general terms: Cyclic AMP is a second messenger, typically raised through Gs and lowered through Gi signalling.
On to `Cc1cc(/C(C[C@H](c2ccc(C(=O)N[C@H]3CC[C@H](C(=O)O)CC3)cc2)c2ccccc2C)=N/O)ccn1` [Example 276, Trans-4-{4-[(R)-3-[(E)-Hydroxyimino]-3-(2-methyl-pyridin-4-yl)-1-o-tolyl-propyl]-benzoylamino}-cyclohexanecarboxylic acid], for which the EC50 turned out to be 59 nM.
`Cc1cc(/C(C[C@H](c2ccc(S(C)(=O)=O)cc2)c2ccc(Cl)cc2C)=N/O)ccn1` [Example 359, (R)-3-(4-Chloro-2-methyl-phenyl)-3-(4-methanesulfonyl-phenyl)-1-(2-methyl-pyridin-4-yl)-propan-1-one oxime]: a half-maximal response (EC50) required 26 nM. This EC50 lies about 2.3-fold lower than the previous one.
On to `Cc1cc(/C(CC(c2ccc(C(=O)N3CCOCC3)cc2)c2ccc(F)cc2F)=N/O)ccn1` (stereo not drawn) [Example 438, 3-(2,4-Difluoro-phenyl)-1-(2-methyl-pyridin-4-yl)-3-[4-(morpholine-4-carbonyl)-phenyl]-propan-1-one oxime], for which the 50% effective concentration (EC50) was 132 nM.
In the case of `Cc1cc(Cl)ccc1C(C/C(=N\O)c1ccc(=O)n(C)c1)c1ccc(S(C)(=O)=O)cc1` (single isomer, unassigned; (-)) [Example 333, (−)-(E)-5-(3-(4-Chloro-2-methylphenyl)-1-(hydroxyimino)-3-(4-(methylsulfonyl)phenyl)-propyl)-1-methylpyridin-2(1H)-one] it was 73 nM; in that of `O=C(O)c1cccc(-c2ccc(C(C/C(=N\O)c3ccncc3)c3ccccc3)cc2)c1` (stereo not drawn) [Example 76, 4′-{3-[(E)-Hydroxyimino]-1-phenyl-3-pyridin-4-yl-propyl}-biphenyl-3-carboxylic acid], 490 nM.
With `CCS(=O)(=O)c1ccc(C(C/C(=N\O)c2ccc(=O)n(C)c2)c2ccc(Cl)cc2F)cc1` (stereo not drawn) [Example 316, (E)-5-(3-(4-Chloro-2-fluorophenyl)-3-(4-(ethylsulfonyl)phenyl)-1-(hydroxyimino)propyl)-1-methylpyridin-2(1H)-one], the EC50 turned out to be 319 nM. This EC50 lies about 1.5-fold lower than the previous one.
`Cn1cc(/C(CC(c2ccc(Br)cc2)c2ccc(F)cc2Cl)=N/O)ccc1=O` (stereo not drawn) [Example 410, (E)-5-(3-(4-bromophenyl)-3-(2-chloro-4-fluorophenyl)-1-(hydroxyimino)propyl)-1-methylpyridin-2(1H)-one]: the concentration giving a half-maximal response (EC50) is 11 nM.
Under `COc1ccc(C2(C/C(=N/O)c3ccnc(C)c3)CCCCC2)cc1` [Example 159, (Z)-2-[1-(4-Methoxy-phenyl)-cyclohexyl]-1-(2-methyl-pyridin-4-yl)-ethanone oxime] stands 5560 nM; under `Cc1cc(/C(CC(c2ccc(/C=C/C(=O)O)cc2)c2ccccc2C)=N\O)ccn1` (racemic) [Example 87, 3-{4-[3-[Hydroxyimino]-3-(2-methyl-pyridin-4-yl)-1-o-tolyl-propyl]-phenyl}-acrylic acid], 241 nM; under `Cc1ccccc1C(C/C(=N\O)c1ccc(=O)n(C)c1)c1ccc(C(=O)NC(C)(C)CO)cc1` (stereo not drawn) [Example 303, (E)-N-(1-Hydroxy-2-methylpropan-2-yl)-4-(3-(hydroxyimino)-3-(1-methyl-6-oxo-1,6-dihydropyridin-3-yl)-1-o-tolylpropyl)benzamide], 816 nM.
On to `CCOC(=O)c1ccc(-c2ccc([C@H](C/C(=N\O)c3ccc(=O)n(C)c3)c3ccc(Cl)cc3F)cc2)s1` (single isomer, unassigned) [Example 469, 5-{4-[(+)-1-(4-Chloro-2-fluoro-phenyl)-3-[(E)-hydroxyimino]-3-(1-methyl-6-oxo-1,6-dihydro-pyridin-3-yl)-propyl]-phenyl}-thiophene-2-carboxylic acid ethyl ester], for which a half-maximal response (EC50) required 420 nM.
`Cc1cc(/C(C[C@H](c2ccc(-c3ccc(C(=O)O)c(F)c3)cc2)c2ccc(Cl)cc2F)=N/O)ccn1` (single isomer, unassigned) [Example 448, 4′-[(−)-1-(4-Chloro-2-fluoro-phenyl)-3-[(E)-hydroxyimino]-3-(2-methyl-pyridin-4-yl)-propyl]-3-fluoro-biphenyl-4-carboxylic acid] had an EC50 of 18 nM.
Under `O/N=C(/CC(c1ccccc1)c1ccccc1)c1cc(Cl)nc(Cl)c1` [Example 73, (Z)-1-(2,6-dichloro-pyridin-4-yl)-3,3-diphenyl-propan-1-one oxime] stands 4430 nM; under `Cn1cc(/C(CC(CCCC(F)(F)F)c2ccc(Br)cc2)=N/O)ccc1=O` (stereo not drawn) [Example 175, 5-{3-(4-Bromo-phenyl)-7,7,7-trifluoro-1-[(E)-hydroxyimino]-heptyl}-1-methyl-1H-pyridin-2-one], 1310 nM.
`Cn1cc(/C(CC(c2ccc(Br)cc2)c2ccc(Cl)cc2F)=N/O)ccc1=O` (single isomer, unassigned; (+)) [Example 239, (+)-5-{3-(4-Bromo-phenyl)-3-(4-chloro-2-fluoro-phenyl)-1-[(E)-hydroxyimino]-propyl}-1-methyl-1H-pyridin-2-one] had a half-maximal effective concentration (EC50) of 24 nM.
Compound `COCc1nnc(-c2ccc([C@@H](C/C(=N\O)c3ccnc(C)c3)c3ccccc3C)cc2)o1` [Example 419, ((−), E)-3-[4-(5-Methoxymethyl-[1,3,4]oxadiazol-2-yl)-phenyl]-1-(2-methyl-pyridin-4-yl)-3-o-tolyl-propan-1-one oxime] displayed an EC50 of 8 nM.
`COC(=O)c1ccc(-c2ccc(C(C/C(=N\O)c3ccnc(C)c3)c3ccc(Cl)cc3F)cc2)cc1F` (stereo not drawn) [Example 446, 4′-[1-(4-Chloro-2-fluoro-phenyl)-3-[(E)-hydroxyimino]-3-(2-methyl-pyridin-4-yl)-propyl]-3-fluoro-biphenyl-4-carboxylic acid methyl ester] returned an EC50 of 59 nM.
Under `COC(=O)CC(=O)Nc1ccc(-c2ccc(C(C/C(=N\O)c3ccc(=O)n(C)c3)c3ccc(F)cc3C)cc2)cc1` (stereo not drawn) [Example 399, N-{4′-[1-(4-Fluoro-2-methyl-phenyl)-3-[(E)-hydroxyimino]-3-(1-methyl-6-oxo-1,6-dihydro-pyridin-3-yl)-propyl]-biphenyl-4-yl}-malonamic acid methyl ester] stands 165 nM; under `ON=C(CC(c1ccccc1)c1ccccc1)c1cc(Cl)ncc1F` (racemic) [Example 55, 1-(2-Chloro-5-fluoro-pyridin-4-yl)-3,3-diphenyl-propan-1-one oxime], 117 nM.
Under `Cc1cc(/C(C[C@H](c2ccc(C3CCN(S(C)(=O)=O)CC3)cc2)c2ccc(Cl)cc2C)=N/O)ccn1` [Example 389, (R,E)-3-(4-Chloro-2-methylphenyl)-1-(2-methylpyridin-4-yl)-3-(4-(1-(methylsulfonyl)-piperidin-4-yl)phenyl)propan-1-one oxime] stands 33 nM.
Regarding `Cc1ccccc1C(CC(=NO)c1ccncc1)c1ccc(-c2ccc(S(C)(=O)=O)cc2)cc1` (racemic) [Example 33, 3-(4′-Methanesulfonyl-biphenyl-4-yl)-1-pyridin-4-yl-3-o-tolyl-propan-1-one oxime], a half-maximal effect (EC50) was put at 47 nM. The EC50 values of the last two compounds are within 1.5-fold of each other.
Under `O/N=C(\CC(c1ccccc1)c1ccccc1)c1ccncc1` [Example 14, (E)-3,3-Diphenyl-1-pyridin-4-yl-propan-1-one oxime] stands 52 nM; under `Cc1cc(/C(CC(c2ccccc2)c2ccccc2)=N/O)cc(F)n1` [Example 56, (E)-1-(2-Fluoro-6-methyl-pyridin-4-yl)-3,3-diphenyl-propan-1-one oxime], 203 nM.
Under `Cc1cc(/C(CC(c2ccc(C(=O)NCCN3CCS(=O)(=O)CC3)cc2)c2ccc(F)cc2F)=N/O)ccn1` (stereo not drawn) [Example 441, 4-[1-(2,4-Difluoro-phenyl)-3-[(E)-hydroxyimino]-3-(2-methyl-pyridin-4-yl)-propyl]-N-[2-(1,1-dioxo-1λ^6-thiomorpholin-4-yl)-ethyl]-benzamide] stands 39 nM.
Under `Cc1cc(/C(C[C@H](c2ccc(NCC(CCl)C(=O)O)cc2)c2ccccc2C)=N/O)ccn1` (stereo partly drawn) [Example 280, 2-Chloromethyl-3-{4-[(R)-3-[(E)-hydroxyimino]-3-(2-methyl-pyridin-4-yl)-1-o-tolyl-propyl]-phenylamino}-propionic acid] stands 19 nM; under `Cc1cc(/C(C[C@H](c2ccc(C3CCC(C(=O)O)CC3)cc2)c2ccc(Cl)cc2C)=N/O)ccn1` (stereo partly drawn) [Example 503, (R,E)-4-(4-(1-(4-Chloro-2-methylphenyl)-3-(hydroxyimino)-3-(2-methylpyridin-4-yl)propyl)phenyl)cyclohexanecarboxylic acid], 25 nM.
In turn, `CN1CCC(N(C)C(=O)c2ccc(C(C/C(=N\O)c3ccc(=O)n(C)c3)c3ccccc3Cl)cc2F)CC1` (stereo not drawn) [Example 218, (E)-4-(1-(2-Chlorophenyl)-3-(hydroxyimino)-3-(1-methyl-6-oxo-1,6-dihydropyridin-3-yl)propyl)-2-fluoro-N-methyl-N-(1-methylpiperidin-4-yl)benzamide] gave a 50% effective concentration (EC50) of 1640 nM.
In the case of `CCN(CC)c1ccc(C(CC(=NO)c2ccncc2)c2ccccc2C)cc1` (racemic) [Example 42, 3-(4-Diethylamino-phenyl)-1-pyridin-4-yl-3-o-tolyl-propan-1-one oxime] it was 156 nM.
Under `Cn1cc(/C(CC(c2ccc(C(=O)NC3CCOCC3)c(F)c2)c2ccccc2Cl)=N/O)ccc1=O` (stereo not drawn) [Example 219, (E)-4-(1-(2-Chlorophenyl)-3-(hydroxyimino)-3-(1-methyl-6-oxo-1,6-dihydropyridin-3-yl)propyl)-2-fluoro-N-(tetrahydro-2H-pyran-4-yl)benzamide] stands 1160 nM; under `Cc1cc(/C(C[C@H](c2ccc(-c3ccc(C(=O)NCC(=O)O)cc3)cc2)c2ccccc2C)=N/O)ccn1` [Example 96, ({4′-[(R)-3-[(E)-Hydroxyimino]-3-(2-methyl-pyridin-4-yl)-1-o-tolyl-propyl]-biphenyl-4-carbonyl}-amino)-acetic acid], 3 nM.

Source of the values: US8765730B2 (Hoffmann-La Roche Inc, priority 2010, dated 2014).
